The record followed here is patent US20150190360A1, “METHODS OF ADMINISTERING MONOMETHYL FUMARATE” (XenoPort, Inc., priority 2013, published 2015).

The subject of data set [1] is imiquimod (IMQ) mouse model of psoriasis. Type of data set: in vivo, Balb/c mice. Here is the method:
In the imiquimod (IMQ) mouse model of psoriasis. Balb/c mice (10 males/group) received daily topical IMQ (5% cream) on shaved back and right ear for 5 days. Animals received oral active drug (90 mg-eq MMF/kg twice daily) or vehicle from Day −5 to Day 5. Erythema score was the primary outcome measure. […] The AUCmolar-MMF-GA:AUCmolar-MMF Ratio (%) in mice dosed with active drug at 90 mg/kg was 23.6%.

The subject of data set [2] is MOG35-55 mouse EAE model of MS.

For `CCN(CC)C(=O)COC(=O)/C=C/C(=O)OC` [Active drug, (N,N-diethylcarbamoyl)methyl methyl (2E)but-2-ene-1,4-dioate], the “AUCmolar-MMF-GA:AUCmolar-MMF Ratio” value worked out at 23.6% in data set [1] (male, Balb/c, mouse, in vivo, 90 mg/kg) and 23.6% in data set [2] (female, C57BL/6, mouse, in vivo, 90 mg/kg). Besides, in data set [1] (oral 90 mg-eq MMF/kg twice daily from Day -5 to Day 5, Balb/c mice, topical IMQ 5% cream), the “Erythema score versus control” value was “significant reduction”. The “EAE clinical score (Day 29 and overall AUC) compared to vehicle” value in data set [2] (oral 90 mg-eq MMF/kg twice daily on Days 3 to 29, C57BL/6 mice, 5 point scale) is recorded as “significant reduction”.
